Reference: ChEMBL document CHEMBL3885861, “Open TG-GATES”

Species on record: Rattus norvegicus
Assay: Open TG-GATES - Regimen: Daily Repeat
Format: toxicity, organism-based, Sprague-Dawley
Design: regimen Daily Repeat, gender Male, age 6 weeks
Details: in vivo, po, 30 mg/kg, route gavage, dose level High; for APTT / Bas / Eos / Fbg / Hb / Ht / Lym / MCH / MCHC / MCV / Mono / Neu / PT / Plat / RBC / Ret / WBC: tissue Blood; for KIDNEY_L / KIDNEY_R / KIDNEY_TOTAL: tissue Kidney; for LIVER: tissue Liver; for A/G / ALP / ALT / AST / BUN / CRE / Ca / Cl / DBIL / GLC / IP / K / LDH / Na / PL / RALB / TBIL / TC / TG / TP / gamma-GTP: tissue Plasma

With `C=CCO` [ALLYL ALCOHOL] the TERMINAL_BW (72 h, time 3 day) was 229 g, the APTT (72 h, time 3 day) was 18.4 s and the Bas (72 h, time 3 day) was 0%. For the same compound, the Eos (72 h, time 3 day) was 0.8%, the Fbg (72 h, time 3 day) was 258.6 mg/dL and the Hb (72 h, time 3 day) was 13.4 g/dL. The Ht (72 h, time 3 day) was 39.4%, the Lym (72 h, time 3 day) was 80% and the MCH (72 h, time 3 day) was 20.9 pg. The MCHC (72 h, time 3 day) was 33.9%, the MCV (72 h, time 3 day) was 61.7 fL and the Mono (72 h, time 3 day) was 3.4%. It also gave a Neu (72 h, time 3 day) of 15.2%, a PT (72 h, time 3 day) of 11.7 s and a Plat (72 h, time 3 day) of 142.1 x10_4/uL. It also gave an RBC (72 h, time 3 day) of 639.6 x10_4/ul, a Ret (72 h, time 3 day) of 4.7% and a WBC (72 h, time 3 day) of 128.3 x10_2/uL. For the same compound, the KIDNEY_L (72 h, time 3 day) was 1 g, the KIDNEY_R (72 h, time 3 day) was 1 g and the KIDNEY_TOTAL (72 h, time 3 day) was 2 g. It also gave an LIVER (72 h, time 3 day) of 11.1 g, an A/G (72 h, time 3 day) of 1.5 and an ALP (72 h, time 3 day) of 874.6 IU/L. It also gave an ALT (72 h, time 3 day) of 39.6 IU/L, an AST (72 h, time 3 day) of 71 IU/L and a BUN (72 h, time 3 day) of 13.6 mg/dL. For the same compound, the CRE (72 h, time 3 day) was 0.4 mg/dL, the Ca (72 h, time 3 day) was 10.5 mg/dL and the Cl (72 h, time 3 day) was 103.2 meq/L. The DBIL (72 h, time 3 day) was 0.058 mg/dL, the GLC (72 h, time 3 day) was 206.2 mg/dL and the IP (72 h, time 3 day) was 7.4 mg/dL. It also gave a K (72 h, time 3 day) of 3.5 meq/L, an LDH (72 h, time 3 day) of 221.2 IU/L and a Na (72 h, time 3 day) of 141.2 meq/L. For the same compound, the PL (72 h, time 3 day) was 125.4 mg/dL, the RALB (72 h, time 3 day) was 3 g/dL and the TBIL (72 h, time 3 day) was 0.1 mg/dL. For the same compound, the TC (72 h, time 3 day) was 73.2 mg/dL, the TG (72 h, time 3 day) was 59 mg/dL and the TP (72 h, time 3 day) was 5 g/dL. It also gave a gamma-GTP (72 h, time 3 day) of 1 IU/L, a TERMINAL_BW ([…], time 7 day) of 238.1 g and a TERMINAL_BW ([…], time 14 day) of 285 g. The TERMINAL_BW ([…], time 28 day) was 374.2 g, the APTT ([…], time 7 day) was 21.6 s and the Bas ([…], time 7 day) was 0%. It also gave an Eos ([…], time 7 day) of 0.8%, a Fbg ([…], time 7 day) of 334.8 mg/dL and a Hb ([…], time 7 day) of 14 g/dL. The Ht ([…], time 7 day) was 40.7%, the Lym ([…], time 7 day) was 74% and the MCH ([…], time 7 day) was 20.6 pg. The MCHC ([…], time 7 day) was 34.4%, the MCV ([…], time 7 day) was 60.2 fL and the Mono ([…], time 7 day) was 5.6%. It also gave a Neu ([…], time 7 day) of 18.2%, a PT ([…], time 7 day) of 13.1 s and a Plat ([…], time 7 day) of 146.5 x10_4/uL. It also gave an RBC ([…], time 7 day) of 676 x10_4/ul, a Ret ([…], time 7 day) of 3.1% and a WBC ([…], time 7 day) of 193.8 x10_2/uL. It also gave an APTT ([…], time 14 day) of 19.2 s, a Bas ([…], time 14 day) of 0% and an Eos ([…], time 14 day) of 0.8%. The Fbg ([…], time 14 day) was 250.6 mg/dL, the Hb ([…], time 14 day) was 13.7 g/dL and the Ht ([…], time 14 day) was 40%. The Lym ([…], time 14 day) was 70.2%, the MCH ([…], time 14 day) was 19.6 pg and the MCHC ([…], time 14 day) was 34.2%. It also gave an MCV ([…], time 14 day) of 57.3 fL, a Mono ([…], time 14 day) of 3.8% and a Neu ([…], time 14 day) of 24.8%. For the same compound, the PT ([…], time 14 day) was 12.4 s, the Plat ([…], time 14 day) was 192.6 x10_4/uL and the RBC ([…], time 14 day) was 698 x10_4/ul. The Ret ([…], time 14 day) was 5.4%, the WBC ([…], time 14 day) was 181.3 x10_2/uL and the APTT ([…], time 28 day) was 20.5 s. For the same compound, the Bas ([…], time 28 day) was 0%, the Eos ([…], time 28 day) was 1.2% and the Fbg ([…], time 28 day) was 218.6 mg/dL. It also gave a Hb ([…], time 28 day) of 15.2 g/dL, a Ht ([…], time 28 day) of 44.1% and a Lym ([…], time 28 day) of 78%. For the same compound, the MCH ([…], time 28 day) was 18.7 pg, the MCHC ([…], time 28 day) was 34.5% and the MCV ([…], time 28 day) was 54.3 fL. The Mono ([…], time 28 day) was 2.8%, the Neu ([…], time 28 day) was 17.2% and the PT ([…], time 28 day) was 12.1 s. It also gave a Plat ([…], time 28 day) of 107.4 x10_4/uL, an RBC ([…], time 28 day) of 813.2 x10_4/ul and a Ret ([…], time 28 day) of 2.8%. It also gave a WBC ([…], time 28 day) of 109.1 x10_2/uL, a KIDNEY_L ([…], time 7 day) of 1 g and a KIDNEY_R ([…], time 7 day) of 1.1 g. It also gave a KIDNEY_TOTAL ([…], time 7 day) of 2.1 g, a KIDNEY_L ([…], time 14 day) of 1.2 g and a KIDNEY_R ([…], time 14 day) of 1.2 g. It also gave a KIDNEY_TOTAL ([…], time 14 day) of 2.4 g, a KIDNEY_L ([…], time 28 day) of 1.3 g and a KIDNEY_R ([…], time 28 day) of 1.3 g. The KIDNEY_TOTAL ([…], time 28 day) was 2.6 g, the LIVER ([…], time 7 day) was 12.6 g and the LIVER ([…], time 14 day) was 14.4 g. It also gave an LIVER ([…], time 28 day) of 16.7 g, an A/G ([…], time 7 day) of 1.2 and an ALP ([…], time 7 day) of 938.4 IU/L. The ALT ([…], time 7 day) was 195.4 IU/L, the AST ([…], time 7 day) was 610 IU/L and the BUN ([…], time 7 day) was 11.4 mg/dL. The CRE ([…], time 7 day) was 0.4 mg/dL, the Ca ([…], time 7 day) was 10.6 mg/dL and the Cl ([…], time 7 day) was 102.4 meq/L. It also gave a DBIL ([…], time 7 day) of 0.088 mg/dL, a GLC ([…], time 7 day) of 182.4 mg/dL and an IP ([…], time 7 day) of 7 mg/dL. It also gave a K ([…], time 7 day) of 3.7 meq/L, an LDH ([…], time 7 day) of 310.6 IU/L and a Na ([…], time 7 day) of 140.6 meq/L. For the same compound, the PL ([…], time 7 day) was 130.8 mg/dL, the RALB ([…], time 7 day) was 3 g/dL and the TBIL ([…], time 7 day) was 0.2 mg/dL. For the same compound, the TC ([…], time 7 day) was 72.6 mg/dL, the TG ([…], time 7 day) was 62.8 mg/dL and the TP ([…], time 7 day) was 5.6 g/dL. The gamma-GTP ([…], time 7 day) was 2.6 IU/L, the A/G ([…], time 14 day) was 1.3 and the ALP ([…], time 14 day) was 758.4 IU/L. The ALT ([…], time 14 day) was 42.8 IU/L, the AST ([…], time 14 day) was 85.6 IU/L and the BUN ([…], time 14 day) was 14.2 mg/dL. For the same compound, the CRE ([…], time 14 day) was 0.4 mg/dL, the Ca ([…], time 14 day) was 10.7 mg/dL and the Cl ([…], time 14 day) was 101.8 meq/L. It also gave a DBIL ([…], time 14 day) of 0.07 mg/dL, a GLC ([…], time 14 day) of 202.6 mg/dL and an IP ([…], time 14 day) of 6.7 mg/dL. It also gave a K ([…], time 14 day) of 3.5 meq/L, an LDH ([…], time 14 day) of 234.8 IU/L and a Na ([…], time 14 day) of 141 meq/L. The PL ([…], time 14 day) was 140.8 mg/dL, the RALB ([…], time 14 day) was 3.4 g/dL and the TBIL ([…], time 14 day) was 0.1 mg/dL. It also gave a TC ([…], time 14 day) of 70.2 mg/dL, a TG ([…], time 14 day) of 69.6 mg/dL and a TP ([…], time 14 day) of 5.9 g/dL. It also gave a gamma-GTP ([…], time 14 day) of 1.4 IU/L, an A/G ([…], time 28 day) of 1.2 and an ALP ([…], time 28 day) of 615.8 IU/L. The ALT ([…], time 28 day) was 39.2 IU/L, the AST ([…], time 28 day) was 64 IU/L and the BUN ([…], time 28 day) was 16.8 mg/dL. The CRE ([…], time 28 day) was 0.5 mg/dL, the Ca ([…], time 28 day) was 10.5 mg/dL and the Cl ([…], time 28 day) was 102.6 meq/L. The DBIL ([…], time 28 day) was 0.068 mg/dL, the GLC ([…], time 28 day) was 220.6 mg/dL and the IP ([…], time 28 day) was 5.6 mg/dL. The K ([…], time 28 day) was 3.5 meq/L, the LDH ([…], time 28 day) was 188.2 IU/L and the Na ([…], time 28 day) was 139.6 meq/L. It also gave a PL ([…], time 28 day) of 135.6 mg/dL, an RALB ([…], time 28 day) of 3.3 g/dL and a TBIL ([…], time 28 day) of 0.1 mg/dL. The TC ([…], time 28 day) was 65.6 mg/dL, the TG ([…], time 28 day) was 98.6 mg/dL and the TP ([…], time 28 day) was 6 g/dL. For the same compound, the gamma-GTP ([…], time 28 day) was 1 IU/L.
